According to US12630532B2, “Indole-substituted quinolines and their combination with Plk1 inhibitors for the treatment of cancer” (UNIVERSITY OF KENTUCKY RESEARCH FOUNDATION, priority 2021, dated 2026):

Assays:
[1] = tested on: AMPK; assay: AMPK signaling (western blotting) in Beas-2B cells; format: cell-based; conditions: compared with CRC cells
Procedure: Western blotting were performed according to previous procedures (25). Cells were split into 12-well plates. After 24 hours, compounds at indicated final concentrations were added to each well for another 24 hours unless otherwise noted. DMSO was used as a control. Cells were lysed in the appropriate volume of lysis buffer: 50 mM HEPES, 100 mM NaCl, 2 mM EDTA, 1% (v/v) glycerol, 50 mM NaF, 1 mM Na3VO4, 1% (v/v) Triton X-100, with protease inhibitors. Cell lysates were centrifuged, and supernatants were mixed with 6× protein loading buffer and boiled. The obtained samples were analyzed with standard western blotting methods with indicated antibodies.

[2] = tested on: mitochondrial ETC (electron transport chain); assay: Seahorse assay (OCR) in Beas-2B cells; format: cell-based
Procedure: Seahorse assays were carried out following a published procedure (25). Briefly, 2.5×10^4 cells in 80 μL of medium were seeded in XF96 Cell Culture microplate for all experiments. On the next day, cell culture media were replaced with Seahorse XF modified media. Cells were treated with 1 μM of oligomycin A, 1.0 μM FCCP and mixture of 1.0 μM of rotenone and 1.0 μM of antimycin A in standard mitochondrial stress test conditions. To determine the uncoupler effects, FCCP was replaced with an equal volume of DMSO, or a compound to be tested in DMSO solution.

[3] = tested on: mouse colon cancer organoids; assay: Colon cancer organoids from Apc^f/+/Kras^LSL-G12D/Villin-Cre mouse model; format: cell-based
Procedure: The colon cancer organoids were isolated from Apc^f/+/Kras^LSL-G12D/Villin-Cre mouse model (38). Using 48-well drug screening to assess how compounds affected organoid colony formation, the Matrigel containing organoids was digested by 300 μL dispase. The gel was removed by 1,000×5 min spinning. The organoids were digested into single cells by 1 mL Trypsin and washed with 10 mL of ADF12. For each well, 80 μL of Matrigel was added to the bottom and 1000 cells in 60 μL Matrigel were added to the top. The cells were cultured in 250 μL of 3D complete medium (Advanced DMEM/F12 supplemented with 1×N-2, 1×B-27, 1 mM N-acetylcysteine and 1% penicillin/streptomycin). The cells were treated with DMSO or testing compounds and total number of organoids with diameter greater than 50 μm were analyzed and manually counted using microscope.
After 3 days when organoids formed, fresh culture media were supplied, and compounds were added for additional 3 days. Organoid viability was measured using CellTiter-Glo® 3D Cell Viability Assay (Promega) following manufacturer's protocol.

[4] = tested on: LS174T colon cancer cell xenografts; assay: In vivo antineoplastic activity and gross toxicity in LS174T xenografts
Procedure: Mouse studies were carried out with approval from the Institutional Animal Care and Use Committee of the University of Kentucky (2020-3531). All methods were performed in accordance with the relevant guidelines and regulations according to protocols. […] After tumors were established, mice were randomized according to tumor volume and divided into groups for treatments (five mice in each group, two tumors on each mouse).
The in vivo evaluation of ISQ-1 and BI2536 followed the approved protocol. After tumors were established, ISQ-1 was formulated in a mixture of Tween-80 (5%), DMSO (10%), PEG400 (25%) and PBS (60%) and was intraperitoneally administered to the ISQ-1 group at a daily dose of 20 mg/kg mouse body weight. The first day of treatment was set as day 0. At days 0, 4, and 7, BI2536 dissolved in 0.1 N HCl and then diluted 5-fold using 0.9% NaCl was given via gavage to the B12536 group. Mice in combination therapy group were treated with both ISQ-1 and BI2536 following aforementioned dosing schedules. At day 11 treatment was ceased and mice were sacrificed. Tumors and mouse weights were measured, and tumor volumes were calculated as Length×width^2/2.
Major biological assays were performed at least twice. Data were shown as mean SEM. For the mice study, five mice with two tumors on the lower flanks of each mouse were used in each treatment group. Sizes of the two tumors from each mouse were averaged, standardized by the tumor size on day 0, and log-transformed. ANOVA with Tukey's HSD test was used to compare the tumor size at the end of the study (day 11) between the combination therapy of ISQ-1 and B12536 and each single compound as well as the control. The equal variance assumption of ANOVA was assessed by Bartlett's test. All statistical studies were overseen in collaboration with a statistician in the University of Kentucky's Markey Cancer Center.

With `CN(C)c1ccc2cc(-c3cn(C)c4ccccc34)c(N)nc2c1` [ISQ-1, N^7,N^7-Dimethyl-3-(1-methyl-1H-indol-3-yl)quinoline-2,7-diamine] the AMPK signaling activation [1] was “less effective in activating AMPK signaling”, the “ETC complex V inhibition (oligomycin replaced with compound)” value [2] was “did not inhibit ETC complex V” and the “uncoupler effect (FCCP replaced with compound)” value [2] was “no uncouplers”. The “organoid growth (CellTiter-Glo 3D viability)” value ([3]; 3-day treatment after organoids formed) was “inhibited organoid growth in a dose-dependent manner”, the “tumor organoid formation from single cells” value ([3]; day 7) was “inhibited tumor organoid formation from single cells” and the “tumor growth of LS174T xenografts” value ([4]; nude mice, ISQ-1 20 mg/kg daily i.p., BI2536 30 mg/kg twice a week by gavage, day 11) was “inhibited tumor growth but did not induce tumor regression”. For the same molecule, the “gross toxicities on the basis of mouse weight measurements” value ([4]; same dosing as efficacy study) was “No gross toxicities”.
